# US20040152119A1, “Solid phase sequencing” (priority 2003, published 2004)
# Test system: cloned DNA polymerase I genetically engineered to eliminate 3′-5′ exonuclease activity, 5′-3′exonuclease activity and discrimination against dideoxynucleotides
# Assay: Nucleic acid sequence detection by polymerase incorporation of gamma-phosphate-labeled dideoxynucleotide in the presence of shrimp alkaline phosphatase (fluorescence)
# Assay type: biochemical
# Details: 23° C.; for dye emission with Primer: Template 1: next template nucleotide dC (SEQ ID NO: 2); for dye emission with Primer: Template 2: next template nucleotide dT (SEQ ID NO: 3)
# Description: Reactions were assembled at room temperature (23° C.) using the dideoxynucleotide of Example (1). Reactions contained primer template combinations having a single oligonucleotide primer (represented by SEQ ID NO: 1) annealed to one of two different oligonucleotide templates with either a dC or a dT as the next template nucleotide adjacent the 3′ terminus of the primer, corresponding to SEQ ID NO: 2 and SEQ ID NO: 3, respectively.
# Referring now to FIG. 1, for template 1 (SEQ ID NO: 2) in the present example, DNA polymerase would be expected to extend the primer with labeled ddGTP. Similarly, for template 2 (SEQ ID NO: 3) in FIG. 1, DNA polymerase would be expected to extend the primer with ddATP, but not with labeled ddGTP.
# Reaction conditions: A 70 μl reaction containing 25 mM Tris, pH 8.0, 5% glycerol 5 mM MgC12, 0.5 mM beta-mercaptoethanol, 0.01% tween-20, 0.25 units shrimp alkaline phosphatase, 100 nM primer annealed to template (the next template nucleotide is either dCMP or dTMP, as indicated), and 2 μM ddGTP-CF3-Coumarin was assembled in a quartz fluorescence ultra-microcuvet in a LS-55 Luminescence Spectrometer (Perkin Elmer), operated in time drive mode. Excitation and emission wavelengths are 390 nm and 500 nm respectively. Slit widths were 5 nm for excitation slits, 15 nm for emission slits. The reaction was initiated by the addition of 0.35 μl (11 units) of a cloned DNA polymerase I genetically engineered to eliminate 3′-5′ exonuclease activity, 5′-3′exonuclease activity and discrimination against dideoxynucleotides and 0.25 mM MnCl2. […]
# [1] = 2 μM ddGTP-CF3-Coumarin, excitation 390 nm, emission 500 nm, FIG. 1
# [2] = 2 μM ddATP-CN-Coumarin, excitation 410 nm, emission 450 nm, FIG. 2
SMILES,dye emission with Primer: Template 1 [1],dye emission with Primer: Template 2 [1],dye emission with Primer: Template 1 [2],dye emission with Primer: Template 2 [2]
"Nc1nc2c(ncn2[C@H]2CC[C@@H](COP(=O)(O)OP(=O)(O)OP(=O)(O)Oc3ccc4c(C(F)(F)F)cc(=O)oc4c3)O2)c(=O)[nH]1 [gamma labeled ddGTP, γ-(4-trifluoromethylcoumarinyl)ddGTP]",dye emission was detected,No detectable dye emission,–,–
"N#Cc1cc2ccc(OP(=O)(O)OP(=O)(O)OP(=O)(O)OC[C@@H]3CC[C@H](n4cnc5c(N)ncnc54)O3)cc2oc1=O [gamma labeled ddATP, γ-(3-Cyanocoumarinyl)ddATP]",–,–,No detectable dye emission,dye emission was detected
